Source: patent publication US9493468B2, “Antifungal 5,6-dihydro-4H-pyrrolo[1,2-a][1,4]benzo-diazepines and 6H-pyrrolo[1,2-a][1,4]benzodiazepines substituted with heterocyclic derivatives” (Janssen Pharmaceutica NV, priority 2011, dated 2016)
Like-named read-outs stand apart in the source and are kept apart here.

Experiments:
Format in all cases: cell-based
[1] = system: Scedosporium prolificans; test: Antifungal activity in vitro, resazurin growth inhibition: Scedosporium prolificans (IHEM21157); conditions: for IC50: Lomentospora prolificans
Method: (§1) The standard susceptibility screen is performed in 96-well plates (U-bottom, Greiner Bio-One). Serial dilutions (2-fold or 4-fold) of 20 mM compound stock solutions are made in 100% DMSO, followed by an intermediate dilution step in water. These serial dilutions (10 μl) are then spotted onto test-plates that can be stored in the dark at 4° C. for a maximum period of 2 weeks. An adequate broad dose-range is included with 64 μM as the highest in-test concentration. The culture medium RPMI-1640 is supplemented with L-glutamine, 2% glucose and buffered with 3-(N-morpholino)-propanesulfonic acid (MOPS) at pH 7.0±0.1.
(§2) The different fungal species/isolates (Table 3a) are cryopreserved and 1/1000 diluted in medium just prior to use. A standard inoculum of 200 μl containing 10^3 colony-forming unit (cfu) is then added to each well. A positive control (100% growth=fungal culture without antifungal) and a negative control (0% growth ═RPMI-MOPS medium) are included on each plate. Optimal incubation time and temperature are dependent on the fungal species and vary from 24 h for yeasts (37° C.) to one week or more for dermatophytes (27° C.). Inhibition of fungal growth is measured after adding 10 μl of 0.005% (w/v) resazurin (Sigma Aldrich) to each well, based on the principle that living cells convert the non-fluorescent blue resazurin into the pink and fluorescent resorufin, allowing fluorimetric reading (λex 550 nm and λem 590 nm) after an additional incubation period (‘resa’ time mentioned in Table 3a).

[2] = system: Rhizopus oryzae; test: Antifungal activity in vitro, resazurin growth inhibition: Rhizopus oryzae (IHEM5223); conditions: for IC50: Rhizopus arrhizus, read-out: Inf. J: Rhizopus oryzae IHEM5223, pIC50 (converted)
Method: as §1, §2

[3] = system: Sporothrix schenkii; test: Antifungal activity in vitro, resazurin growth inhibition: Sporothrix schenkii (B62482)
Outline: (§3)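 Resazurin conversion to fluorescent resorufin (ex 550/em 590 nm) served as the growth readout. Compounds spanned 2- or 4-fold serial dilutions with 64 μM top in-test concentration; inoculum 10^3 cfu per well in MOPS-buffered RPMI-1640 (pH 7.0, 2% glucose). Incubation species-dependent, dermatophytes at 27° C. for ≥1 week.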

[4] = system: Rhizomucor miehei; test: Antifungal activity in vitro, resazurin growth inhibition: Rhizomucor miehei (IHEM13391); conditions: for IC50: read-out: Inf. K: Rhizomucor miehei IHEM13391, pIC50 (converted)
Method: as §1, §2

[5] = system: Candida parapsilosis; test: Antifungal activity in vitro, resazurin growth inhibition: Candida parapsilosis (B66126); conditions: for IC50: Lodderomyces parapsilosis
Outline: as §3

[6] = system: Trichophyton mentagrophytes; test: Antifungal activity in vitro, resazurin growth inhibition: Trichophyton mentagrophytes (B70554)
Outline: (§4)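 Compound dilutions, with 64 μM as the highest in-test level, are spotted onto plates, then an inoculum of 10^3 cfu in RPMI-1640 plus 2% glucose (MOPS, pH 7.0±0.1) is added. Plates are incubated at species-dependent time and temperature, up to a week or more at 27° C. for dermatophytes.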

[7] = system: Microsporum canis; test: Antifungal activity in vitro, resazurin growth inhibition: Microsporum canis (B68128)
Outline: as §4

[8] = system: Cryptococcus neoformans; test: Antifungal activity in vitro, resazurin growth inhibition: Cryptococcus neoformans (B66663)
Outline: as §3

[9] = system: Trichophyton rubrum; test: Antifungal activity in vitro, resazurin growth inhibition: Trichophyton rubrum (B68183)
Outline: as §4

[10] = system: Scedosporium apiospermum; test: Antifungal activity in vitro, resazurin growth inhibition: Scedosporium apiospermum (IHEM3817)
Method: as §1, §2

[11] = system: Aspergillus fumigatus; test: Antifungal activity in vitro, resazurin growth inhibition: Aspergillus fumigatus (B42928)
Outline: as §3

[12] = read-out: Inf. I: Scedosporium prolificans IHEM21157, pIC50 (converted)
[13] = read-out: Inf. A: Sporothrix schenkii B62482, pIC50 (converted)
[14] = read-out: Inf. D: Candida parapsilosis B66126, pIC50 (converted)
[15] = read-out: Inf. G: Trichophyton mentagrophytes B70554, pIC50 (converted)
[16] = read-out: Inf. B: Microsporum canis B68128, pIC50 (converted)
[17] = read-out: Inf. F: Cryptococcus neoformans B66663, pIC50 (converted)
[18] = read-out: Inf. C: Trichophyton rubrum B68183, pIC50 (converted)
[19] = read-out: Inf. H: Scedosporium apiospermum IHEM3817, pIC50 (converted)
[20] = read-out: Inf. E: Aspergillus fumigatus B42928, pIC50 (converted)
[21] = read-out: Inf. I: Scedosporium prolificans IHEM21157 pIC50 (converted)
[22] = read-out: Inf. A: Sporothrix schenkii B62482 pIC50 (converted)
[23] = read-out: Inf. D: Candida parapsilosis B66126 pIC50 (converted)
[24] = read-out: Inf. G: Trichophyton mentagrophytes B70554 pIC50 (converted)
[25] = read-out: Inf. B: Microsporum canis B68128 pIC50 (converted)
[26] = read-out: Inf. F: Cryptococcus neoformans B66663 pIC50 (converted)
[27] = read-out: Inf. C: Trichophyton rubrum B68183 pIC50 (converted)
[28] = read-out: Inf. H: Scedosporium apiospermum IHEM3817 pIC50 (converted)
[29] = read-out: Inf. E: Aspergillus fumigatus B42928 pIC50 (converted)

Structure (SMILES)	Inf. I: Scedosporium prolificans IHEM21157, pIC50 [1]	Inf. J: Rhizopus oryzae IHEM5223, pIC50 [2]	Inf. A: Sporothrix schenkii B62482, pIC50 [3]	Inf. K: Rhizomucor miehei IHEM13391, pIC50 [4]	Inf. D: Candida parapsilosis B66126, pIC50 [5]	Inf. G: Trichophyton mentagrophytes B70554, pIC50 [6]	Inf. B: Microsporum canis B68128, pIC50 [7]	Inf. F: Cryptococcus neoformans B66663, pIC50 [8]	Inf. C: Trichophyton rubrum B68183, pIC50 [9]	Inf. H: Scedosporium apiospermum IHEM3817, pIC50 [10]	Inf. E: Aspergillus fumigatus B42928, pIC50 [11]	further results
Cl.Clc1cccc2c1CNC(c1cc3ccccc3o1)c1cccn1-2 (racemic) [Compound 30]	<4.19	<4.19	4.89	<4.19	5.22	6.15	6.27	<4.19	6.29	4.94	6.32	
Cc1cccc2c1CNC(c1cc3cc(Cl)ccc3o1)c1cccn1-2.Cl (racemic) [Compound 34]	5.66	<4.19	<4.19	<4.19	<4.19	6.22	6.40	<4.19	6.72	<4.19	<4.19	
Fc1ccc2oc(C3NCc4c(Cl)cccc4-n4cccc43)cc2c1 (racemic) [Compound 47]	6.38	<4.19	<4.19	4.81	<4.19	5.08	5.84	<4.19	6.25	6.03	4.91	
Cc1cccc2c1-n1cccc1C(c1cc3ccccc3s1)NC2.Cl (racemic) [Compound 55]	5.47	<4.19	5.04	<4.19	<4.19	5.72	5.70	5.32	6.30	4.86	5.55	
Cc1cccc2c1CN=C(c1cc3ccccc3s1)c1cccn1-2 [Compound 2]												IC50 [1, 12]: 1620 nM; IC50 [2]: > 64600 nM; IC50 [3, 13]: 646 nM; IC50 [4]: > 64600 nM; IC50 [5, 14]: > 64600 nM; IC50 [6, 15]: 427 nM; IC50 [7, 16]: 331 nM; IC50 [8, 17]: 2000 nM; IC50 [9, 18]: 166 nM; IC50 [10, 19]: 525 nM; IC50 [11, 20]: 2000 nM
Clc1cccc2c1CN=C(c1ccc3sccc3c1)c1cccn1-2 [Compound 9]												IC50 [1, 12]: 39.8 nM; IC50 [2]: > 64600 nM; IC50 [3, 13]: 1660 nM; IC50 [4]: 2340 nM; IC50 [5, 14]: 603 nM; IC50 [6, 15]: 97.7 nM; IC50 [7, 16]: 107 nM; IC50 [8, 17]: 646 nM; IC50 [9, 18]: 36.3 nM; IC50 [10, 19]: 550 nM; IC50 [11, 20]: 12.9 nM
CC(C)n1ccc(C2=NCc3c(Cl)cccc3-n3cccc32)cc1=O [Compound 70]	6.38	5.50	5.17	4.52	5.12	6.40	6.36	5.28	6.99	5.68	6.00	
CCc1ccc(C2=NCc3c(Cl)cccc3-n3cccc32)cn1 [Compound 74]	6.88	<4.19	4.44	<4.19	4.92	6.18	5.91	<4.19	6.31	6.29	5.25	
CCc1ccc(C2=NCc3c(Cl)cc(Cl)cc3-n3cccc32)cn1 [Compound 76]	5.46	<4.19	4.46	4.49	<4.19	5.00	6.34	4.82	5.75	5.07	4.72	
Clc1cccc2c1CN=C(c1cc3ccccc3o1)c1cccn1-2 [Compound 118]		<4.19	5.70	<4.19	5.70	7.07		5.30		<4.19		
Clc1cccc2c1CN=C(c1cnc3ccccc3c1)c1cccn1-2 [Compound 201]												IC50 [1, 21]: 100 nM; IC50 [3, 22]: > 100000 nM; IC50 [5, 23]: > 100000 nM; IC50 [6, 24]: > 100000 nM; IC50 [7, 25]: 1000 nM; IC50 [8, 26]: > 100000 nM; IC50 [9, 27]: 1000 nM; IC50 [10, 28]: > 100000 nM; IC50 [11, 29]: > 100000 nM
c1ccc2c(c1)CN=C(c1cnc3ccccc3c1)c1cccn1-2 [Compound 202]												IC50 [1, 21]: 100 nM; IC50 [3, 22]: 1000 nM; IC50 [5, 23]: > 100000 nM; IC50 [6, 24]: 468 nM; IC50 [7, 25]: 10 nM; IC50 [8, 26]: 10000 nM; IC50 [9, 27]: 100 nM; IC50 [10, 28]: 10000 nM; IC50 [11, 29]: 2140 nM
Clc1ccc2c(c1)-n1cccc1C(c1ccncc1)=NC2 [Compound 203]	<4		<4		<4	<4	4.50	<4	4.67	<4	<4	
Clc1ccc2c(c1)-n1cccc1C(c1ccc3nc[nH]c3c1)=NC2 [Compound 204]	<4		<4		<4	<4	4.50	<4	4.67	<4	<4	
Clc1ccc2c(c1)-n1cccc1C(c1cnc3ccccc3c1)=NC2 [Compound 206]	6.00		5.33		<4	5.33	5.00	5.33	6.00	5.00	5.33	
